From US20140120232A1, “ACID TASTE/ACID SMELL-REDUCING AGENT” (T. HASEGAWA CO., LTD., priority 2011, published 2014)

Assay: Sensory evaluation of Vermont drink containing the agent
Conditions: ten panels
Protocol: Water was added to a mixture of 10 g of apple-cider vinegar (acetic acid: 4.8%), 3 g of honey, 7 g of fructose-glucose liquid sugar mixed with sugar, 0.02 g of citric acid, 0.002 g of trisodium citrate, and 0.1 g of a Vermont flavor (manufactured by T. Hasegawa Co., Ltd.) to give a total amount of 100 mL. To the resulting mixture was added (Z,Z)-4,7-tridecadienal as the acid taste and/or acid smell-reducing agent of the present invention in concentrations shown in the following Table 1 to give Vermont drinks containing the agent.
Sensory evaluation of each drink was carried out by ten panels. […] The piercing aroma characteristic to aldehydes is a characteristic aroma common to every aldehyde and refers to an irritant off-smell giving an image of deteriorated oils and fats, soap, metals, Houttuynia cordata, etc. The judgment of smell was performed by comparing the effects at different concentrations of the acid taste and/or acid smell-reducing agent, and a concentration giving the highest acid taste/acid smell quality was selected. […]

CCCCC/C=C\C/C=C/C=C/C=O [(E,E,Z)-2,4,7-tridecatrienal]
A: number of panels, acid taste/acid smell extreme and cause irritation (0.005 ppt): 10 | B: number of panels, acid taste/acid smell slightly strong and slightly cause irritation (0.005 ppt): 0 | C: number of panels, acid taste/acid smell slightly unpleasant (0.005 ppt): 0 | Flavor judgment: number of panels who judged acid taste/acid smell quality the highest (0.005 ppt): 0 | N: number of panels, irritation of acid reduced to give a mild acid taste (0.005 ppt): 0 | X: number of panels, acid taste reduced but piercing odor characteristic to aldehydes unpleasant (0.005 ppt): 0 | A: number of panels, acid taste/acid smell extreme and cause irritation (0.02 ppt): 10 | B: number of panels, acid taste/acid smell slightly strong and slightly cause irritation (0.02 ppt): 0 | C: number of panels, acid taste/acid smell slightly unpleasant (0.02 ppt): 0 | Flavor judgment: number of panels who judged acid taste/acid smell quality the highest (0.02 ppt): 0 | N: number of panels, irritation of acid reduced to give a mild acid taste (0.02 ppt): 0 | X: number of panels, acid taste reduced but piercing odor characteristic to aldehydes unpleasant (0.02 ppt): 0 | A: number of panels, acid taste/acid smell extreme and cause irritation (0.1 ppt): 10 | B: number of panels, acid taste/acid smell slightly strong and slightly cause irritation (0.1 ppt): 0 | C: number of panels, acid taste/acid smell slightly unpleasant (0.1 ppt): 0 | Flavor judgment: number of panels who judged acid taste/acid smell quality the highest (0.1 ppt): 0 | N: number of panels, irritation of acid reduced to give a mild acid taste (0.1 ppt): 0 | X: number of panels, acid taste reduced but piercing odor characteristic to aldehydes unpleasant (0.1 ppt): 0 | A: number of panels, acid taste/acid smell extreme and cause irritation (0.2 ppt): 8 | B: number of panels, acid taste/acid smell slightly strong and slightly cause irritation (0.2 ppt): 2 | C: number of panels, acid taste/acid smell slightly unpleasant (0.2 ppt): 0 | Flavor judgment: number of panels who judged acid taste/acid smell quality the highest (0.2 ppt): 0 | N: number of panels, irritation of acid reduced to give a mild acid taste (0.2 ppt): 0 | X: number of panels, acid taste reduced but piercing odor characteristic to aldehydes unpleasant (0.2 ppt): 0 | A: number of panels, acid taste/acid smell extreme and cause irritation (0.5 ppt): 7 | B: number of panels, acid taste/acid smell slightly strong and slightly cause irritation (0.5 ppt): 2 | C: number of panels, acid taste/acid smell slightly unpleasant (0.5 ppt): 1 | Flavor judgment: number of panels who judged acid taste/acid smell quality the highest (0.5 ppt): 0 | N: number of panels, irritation of acid reduced to give a mild acid taste (0.5 ppt): 0 | X: number of panels, acid taste reduced but piercing odor characteristic to aldehydes unpleasant (0.5 ppt): 0 | A: number of panels, acid taste/acid smell extreme and cause irritation (1 ppb): 0 | B: number of panels, acid taste/acid smell slightly strong and slightly cause irritation (1 ppb): 0 | C: number of panels, acid taste/acid smell slightly unpleasant (1 ppb): 3 | Flavor judgment: number of panels who judged acid taste/acid smell quality the highest (1 ppb): 0 | N: number of panels, irritation of acid reduced to give a mild acid taste (1 ppb): 4 | X: number of panels, acid taste reduced but piercing odor characteristic to aldehydes unpleasant (1 ppb): 3 | A: number of panels, acid taste/acid smell extreme and cause irritation (1 ppt): 0 | B: number of panels, acid taste/acid smell slightly strong and slightly cause irritation (1 ppt): 5 | C: number of panels, acid taste/acid smell slightly unpleasant (1 ppt): 4 | Flavor judgment: number of panels who judged acid taste/acid smell quality the highest (1 ppt): 0 | N: number of panels, irritation of acid reduced to give a mild acid taste (1 ppt): 1 | X: number of panels, acid taste reduced but piercing odor characteristic to aldehydes unpleasant (1 ppt): 0 | A: number of panels, acid taste/acid smell extreme and cause irritation (5 ppt): 0 | B: number of panels, acid taste/acid smell slightly strong and slightly cause irritation (5 ppt): 2 | C: number of panels, acid taste/acid smell slightly unpleasant (5 ppt): 3 | Flavor judgment: number of panels who judged acid taste/acid smell quality the highest (5 ppt): 3 | N: number of panels, irritation of acid reduced to give a mild acid taste (5 ppt): 5 | X: number of panels, acid taste reduced but piercing odor characteristic to aldehydes unpleasant (5 ppt): 0 | A: number of panels, acid taste/acid smell extreme and cause irritation (10 ppb): 0 | B: number of panels, acid taste/acid smell slightly strong and slightly cause irritation (10 ppb): 0 | C: number of panels, acid taste/acid smell slightly unpleasant (10 ppb): 2 | Flavor judgment: number of panels who judged acid taste/acid smell quality the highest (10 ppb): 0 | N: number of panels, irritation of acid reduced to give a mild acid taste (10 ppb): 2 | X: number of panels, acid taste reduced but piercing odor characteristic to aldehydes unpleasant (10 ppb): 6 | A: number of panels, acid taste/acid smell extreme and cause irritation (20 ppt): 0 | B: number of panels, acid taste/acid smell slightly strong and slightly cause irritation (20 ppt): 0 | C: number of panels, acid taste/acid smell slightly unpleasant (20 ppt): 4 | Flavor judgment: number of panels who judged acid taste/acid smell quality the highest (20 ppt): 4 | N: number of panels, irritation of acid reduced to give a mild acid taste (20 ppt): 6 | X: number of panels, acid taste reduced but piercing odor characteristic to aldehydes unpleasant (20 ppt): 0 | A: number of panels, acid taste/acid smell extreme and cause irritation (50 ppb): 0 | B: number of panels, acid taste/acid smell slightly strong and slightly cause irritation (50 ppb): 0 | C: number of panels, acid taste/acid smell slightly unpleasant (50 ppb): 0 | Flavor judgment: number of panels who judged acid taste/acid smell quality the highest (50 ppb): 0 | N: number of panels, irritation of acid reduced to give a mild acid taste (50 ppb): 2 | X: number of panels, acid taste reduced but piercing odor characteristic to aldehydes unpleasant (50 ppb): 8 | A: number of panels, acid taste/acid smell extreme and cause irritation (100 ppt): 0 | B: number of panels, acid taste/acid smell slightly strong and slightly cause irritation (100 ppt): 0 | C: number of panels, acid taste/acid smell slightly unpleasant (100 ppt): 3 | Flavor judgment: number of panels who judged acid taste/acid smell quality the highest (100 ppt): 3 | N: number of panels, irritation of acid reduced to give a mild acid taste (100 ppt): 7 | X: number of panels, acid taste reduced but piercing odor characteristic to aldehydes unpleasant (100 ppt): 0 | A: number of panels, acid taste/acid smell extreme and cause irritation (500 ppt): 0 | B: number of panels, acid taste/acid smell slightly strong and slightly cause irritation (500 ppt): 0 | C: number of panels, acid taste/acid smell slightly unpleasant (500 ppt): 4 | Flavor judgment: number of panels who judged acid taste/acid smell quality the highest (500 ppt): 0 | N: number of panels, irritation of acid reduced to give a mild acid taste (500 ppt): 4 | X: number of panels, acid taste reduced but piercing odor characteristic to aldehydes unpleasant (500 ppt): 2

CCCCC/C=C\C/C=C/CCC=O [(E,Z)-4,7-tridecadienal]
A: number of panels, acid taste/acid smell extreme and cause irritation (0.005 ppt): 10 | B: number of panels, acid taste/acid smell slightly strong and slightly cause irritation (0.005 ppt): 0 | C: number of panels, acid taste/acid smell slightly unpleasant (0.005 ppt): 0 | Flavor judgment: number of panels who judged acid taste/acid smell quality the highest (0.005 ppt): 0 | N: number of panels, irritation of acid reduced to give a mild acid taste (0.005 ppt): 0 | X: number of panels, acid taste reduced but piercing odor characteristic to aldehydes unpleasant (0.005 ppt): 0 | A: number of panels, acid taste/acid smell extreme and cause irritation (0.02 ppt): 10 | B: number of panels, acid taste/acid smell slightly strong and slightly cause irritation (0.02 ppt): 0 | C: number of panels, acid taste/acid smell slightly unpleasant (0.02 ppt): 0 | Flavor judgment: number of panels who judged acid taste/acid smell quality the highest (0.02 ppt): 0 | N: number of panels, irritation of acid reduced to give a mild acid taste (0.02 ppt): 0 | X: number of panels, acid taste reduced but piercing odor characteristic to aldehydes unpleasant (0.02 ppt): 0 | A: number of panels, acid taste/acid smell extreme and cause irritation (0.1 ppt): 10 | B: number of panels, acid taste/acid smell slightly strong and slightly cause irritation (0.1 ppt): 0 | C: number of panels, acid taste/acid smell slightly unpleasant (0.1 ppt): 0 | Flavor judgment: number of panels who judged acid taste/acid smell quality the highest (0.1 ppt): 0 | N: number of panels, irritation of acid reduced to give a mild acid taste (0.1 ppt): 0 | X: number of panels, acid taste reduced but piercing odor characteristic to aldehydes unpleasant (0.1 ppt): 0 | A: number of panels, acid taste/acid smell extreme and cause irritation (0.2 ppt): 8 | B: number of panels, acid taste/acid smell slightly strong and slightly cause irritation (0.2 ppt): 2 | C: number of panels, acid taste/acid smell slightly unpleasant (0.2 ppt): 0 | Flavor judgment: number of panels who judged acid taste/acid smell quality the highest (0.2 ppt): 0 | N: number of panels, irritation of acid reduced to give a mild acid taste (0.2 ppt): 0 | X: number of panels, acid taste reduced but piercing odor characteristic to aldehydes unpleasant (0.2 ppt): 0 | A: number of panels, acid taste/acid smell extreme and cause irritation (0.5 ppt): 6 | B: number of panels, acid taste/acid smell slightly strong and slightly cause irritation (0.5 ppt): 3 | C: number of panels, acid taste/acid smell slightly unpleasant (0.5 ppt): 1 | Flavor judgment: number of panels who judged acid taste/acid smell quality the highest (0.5 ppt): 0 | N: number of panels, irritation of acid reduced to give a mild acid taste (0.5 ppt): 0 | X: number of panels, acid taste reduced but piercing odor characteristic to aldehydes unpleasant (0.5 ppt): 0 | A: number of panels, acid taste/acid smell extreme and cause irritation (1 ppb): 0 | B: number of panels, acid taste/acid smell slightly strong and slightly cause irritation (1 ppb): 0 | C: number of panels, acid taste/acid smell slightly unpleasant (1 ppb): 2 | Flavor judgment: number of panels who judged acid taste/acid smell quality the highest (1 ppb): 0 | N: number of panels, irritation of acid reduced to give a mild acid taste (1 ppb): 4 | X: number of panels, acid taste reduced but piercing odor characteristic to aldehydes unpleasant (1 ppb): 4 | A: number of panels, acid taste/acid smell extreme and cause irritation (1 ppt): 0 | B: number of panels, acid taste/acid smell slightly strong and slightly cause irritation (1 ppt): 4 | C: number of panels, acid taste/acid smell slightly unpleasant (1 ppt): 5 | Flavor judgment: number of panels who judged acid taste/acid smell quality the highest (1 ppt): 0 | N: number of panels, irritation of acid reduced to give a mild acid taste (1 ppt): 1 | X: number of panels, acid taste reduced but piercing odor characteristic to aldehydes unpleasant (1 ppt): 0 | A: number of panels, acid taste/acid smell extreme and cause irritation (5 ppt): 0 | B: number of panels, acid taste/acid smell slightly strong and slightly cause irritation (5 ppt): 1 | C: number of panels, acid taste/acid smell slightly unpleasant (5 ppt): 3 | Flavor judgment: number of panels who judged acid taste/acid smell quality the highest (5 ppt): 4 | N: number of panels, irritation of acid reduced to give a mild acid taste (5 ppt): 6 | X: number of panels, acid taste reduced but piercing odor characteristic to aldehydes unpleasant (5 ppt): 0 | A: number of panels, acid taste/acid smell extreme and cause irritation (10 ppb): 0 | B: number of panels, acid taste/acid smell slightly strong and slightly cause irritation (10 ppb): 0 | C: number of panels, acid taste/acid smell slightly unpleasant (10 ppb): 2 | Flavor judgment: number of panels who judged acid taste/acid smell quality the highest (10 ppb): 0 | N: number of panels, irritation of acid reduced to give a mild acid taste (10 ppb): 4 | X: number of panels, acid taste reduced but piercing odor characteristic to aldehydes unpleasant (10 ppb): 4 | A: number of panels, acid taste/acid smell extreme and cause irritation (20 ppt): 0 | B: number of panels, acid taste/acid smell slightly strong and slightly cause irritation (20 ppt): 0 | C: number of panels, acid taste/acid smell slightly unpleasant (20 ppt): 2 | Flavor judgment: number of panels who judged acid taste/acid smell quality the highest (20 ppt): 3 | N: number of panels, irritation of acid reduced to give a mild acid taste (20 ppt): 8 | X: number of panels, acid taste reduced but piercing odor characteristic to aldehydes unpleasant (20 ppt): 0 | A: number of panels, acid taste/acid smell extreme and cause irritation (50 ppb): 0 | B: number of panels, acid taste/acid smell slightly strong and slightly cause irritation (50 ppb): 0 | C: number of panels, acid taste/acid smell slightly unpleasant (50 ppb): 0 | Flavor judgment: number of panels who judged acid taste/acid smell quality the highest (50 ppb): 0 | N: number of panels, irritation of acid reduced to give a mild acid taste (50 ppb): 2 | X: number of panels, acid taste reduced but piercing odor characteristic to aldehydes unpleasant (50 ppb): 8 | A: number of panels, acid taste/acid smell extreme and cause irritation (100 ppt): 0 | B: number of panels, acid taste/acid smell slightly strong and slightly cause irritation (100 ppt): 1 | C: number of panels, acid taste/acid smell slightly unpleasant (100 ppt): 2 | Flavor judgment: number of panels who judged acid taste/acid smell quality the highest (100 ppt): 3 | N: number of panels, irritation of acid reduced to give a mild acid taste (100 ppt): 7 | X: number of panels, acid taste reduced but piercing odor characteristic to aldehydes unpleasant (100 ppt): 0 | A: number of panels, acid taste/acid smell extreme and cause irritation (500 ppt): 0 | B: number of panels, acid taste/acid smell slightly strong and slightly cause irritation (500 ppt): 1 | C: number of panels, acid taste/acid smell slightly unpleasant (500 ppt): 3 | Flavor judgment: number of panels who judged acid taste/acid smell quality the highest (500 ppt): 0 | N: number of panels, irritation of acid reduced to give a mild acid taste (500 ppt): 4 | X: number of panels, acid taste reduced but piercing odor characteristic to aldehydes unpleasant (500 ppt): 2
